In patent US6723739B1, “Glucopyranoside benzothiophenes” (Eli Lilly and Company, priority 1994, dated 2004):

Experiments:
serum cholesterol = experiment: Serum cholesterol in the ovariectomized rat post-menopausal model; type: in vivo; conditions: OVX rats, daily for 4 days
Protocol: (§1) A post-menopausal model was used in which effects of different treatments upon circulating lipids were determined.
(§2) Seventy-five day old female Sprague Dawley rats (weight range of 200 to 225 g) were obtained from Charles River Laboratories (Portage, Mich.). The animals were either bilaterally ovariectomized (OVX) or exposed to a sham surgical procedure at Charles River Laboratories, and then shipped after one week. Upon arrival, they were housed in metal hanging cages in groups of 3 or 4 per cage and had ad libitum access to food (calcium content approximately 0.5%) and water for one week. Room temperature was maintained at 22.2°±1.7° C. with a minimum relative humidity of 40%. The photoperiod in the room was 12 hours light and 12 hours dark.
(§3) Dosina Regimen/Tissue Collection. After a one week acclimation period (therefore, two weeks post-OVX) daily dosing with test compound was initiated. All compounds were administered subcutaneously at the dosages listed. Animals were dosed daily for 4 days. Following the dosing regimen animals were weighed and anesthetized with a ketamine: xylazine (2:1, [V:V] mixture and a blood sample was collected by cardiac puncture. The animals were then sacrificed by asphyxiation with CO2 and the uterus was removed through a midline incision and a wet weight was determined.
Cholesterol Analysis. Blood samples were allowed to clot at room temperature for 2 hrs, and serum was obtained following centrifugation for 10 min at 3000 rpm. Serum cholesterol was determined using a Boehringer Mannheim Diagnostics high performance cholesterol assay. Briefly the cholesterol was oxidized to cholest-4-en-3-one and hydrogen peroxide. The hydrogen peroxide was then reacted with phenol and 4-aminophenazone in the presence of peroxidase to produce a p-quinone imine dye, which was read spectrophotometrically at 500 nm. Cholesterol concentration was then calculated against a standard curve. The entire assay was automated using a Biomek Automated workstation.

uterus = experiment: Uterine wet weight in ovariectomized rats; type: in vivo, rat; conditions: OVX rats, daily for 4 days, vs control OVX
Protocol: as §1, §2, §3

[1] = test system: uterine eosinophil peroxidase; experiment: Uterine eosinophil peroxidase (EPO) assay in ovariectomized rats; type: in vivo, rat; conditions: OVX rats, daily for 4 days
Excerpt: as §2, §3
Uterine Eosinophil Peroxidase (EPO) Assay. The presence of eosinophils in the uterus is an indication of estrogenic activity of a compound. To maintain EPO activity, uteri were kept at 4° C. until time of enzymatic analysis. The uteri were then homogenized in 50 volumes of 50 mM Tris buffer (pH-8.0) containing 0.005% Triton X-100. Upon addition of 0.01% hydrogen peroxide and 10 mM o-phenylenediamine (final concentrations) in Tris buffer, increase in absorbance was monitored for one minute at 450 nm. The maximal velocity of a 15 second interval was determined over the initial linear portion of the reaction curve.

[2] = Systemic circulation and metabolites after oral raloxifene in humans; type: in vivo, human

SMILES | % Decrease of Serum Cholesterol (serum cholesterol; 0.013 mg/kg subcutaneously) [%] | % Decrease of Serum Cholesterol (serum cholesterol; 0.13 mg/kg subcutaneously) [%] | % Decrease of Serum Cholesterol (serum cholesterol; 1.3 mg/kg subcutaneously) [%] | % Uterine Wt. gain (uterus; 0.013 mg/kg subcutaneously) [%] | % Uterine Wt. gain (uterus; 0.13 mg/kg subcutaneously) [%] | % Uterine Wt. gain (uterus; 1.3 mg/kg subcutaneously) [%] | EPO Activity (Vmax for eosinophil peroxidase activity) ([1]; 0.013 mg/kg subcutaneously) [n OD/min] | EPO Activity (Vmax for eosinophil peroxidase activity) ([1]; 0.13 mg/kg subcutaneously) [n OD/min] | EPO Activity (Vmax for eosinophil peroxidase activity) ([1]; 1.3 mg/kg subcutaneously) [n OD/min] | Metabolite status ([2]; human metabolite of raloxifene) | Concentrations of raloxifene in systemic circulation ([2]; administered orally to humans)
O=C(c1ccc(OCCN2CCCCC2)cc1)c1c(-c2ccc(O)cc2)sc2cc(O[C@@H]3OC(C(=O)O)[C@@H](O)[C@H](O)[C@H]3O)ccc12 (some centres unmarked) [Ia] | 21.7 | 43.8 | 44.5 | −21.3 | 14.2 | 24.1 | 2.0 | 2.3 | 3.5 | – | –
O=C(c1ccc(OCCN2CCCCC2)cc1)c1c(-c2ccc(O[C@@H]3O[C@H](C(=O)O)[C@@H](O)[C@H](O)[C@H]3O)cc2)sc2cc(O)ccc12 [Ib] | 13.6 | 21.9 | 56.8 | −7.7 | 14.5 | 36.1 | 3.2 | 3.1 | 4.4 | predominant human metabolite | –
Cl.O=C(c1ccc(OCCN2CCCCC2)cc1)c1c(-c2ccc(O)cc2)sc2cc(O)ccc12 [raloxifene, 6-Hydroxy-2-(4-hydroxyphenyl)-3-[4-(2-piperidinoethoxy)benzoyl]benzo[b]thiophene, reference compound] | – | – | – | – | – | – | – | – | – | – | absence of detectable concentrations
